According to patent publication US10770169B2, “Method of providing a treatment to a subject based on a dynamic pathway map” (THE REGENTS OF THE UNIVERSITY OF CALIFORNIA, priority 2010, dated 2020):

Key:
[1] = tested on: luminal, basal, claudin-low and ERBB2AMP breast cancer cell lines; assay: Associations of clinically relevant subtypes and response (non-parametric ANOVA or t-test on GI50 ranks); type: cell-based, human; details: Table 6; most sensitive subtype, FDR p<0.20
How it was run: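 GI50 values were compared between cell-line subtype groups by non-parametric ANOVA or t-test on ranks. P-values from three test sets were combined and FDR-corrected. Significant three-group effects were followed by post-hoc comparison of each group against all others, and FDR p<0.20 counted as significant.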

[2] = tested on: panel of 55 breast cancer cell lines; assay: Cell growth inhibition assay (Cell Titer Glo, 72 h, 9 doses; GI50, TGI, LC50); type: cell-based, human; details: value is the negative log10 of mol/L

Q: How did the Subtype specificity [1] turn out when `Cc1cc(C(C)Nc2ccccc2)c2nc(N3CCOCC3)cc(=O)n2c1` (centres unmarked) [TGX-221] was run?
A: Luminal

Q: What about the GI50 ([2]; 600MPE cell line, censored GI50 values) of the same compound?
A: 5.09

Q: What about the GI50 ([2]; AU565 cell line, censored GI50 values) of the same compound?
A: 5.18

Q: What about the GI50 ([2]; BT20 cell line, censored GI50 values) of the same compound?
A: 4.77

Q: And the GI50 ([2]; BT474 cell line, censored GI50 values)?
A: 5.10

Q: And the GI50 ([2]; BT483 cell line, censored GI50 values)?
A: 5.37

Q: What about the GI50 ([2]; CAMA1 cell line, censored GI50 values) of the same compound?
A: 5.10

Q: What about the GI50 ([2]; HCC38 cell line, censored GI50 values) of the same compound?
A: 5.11

Q: And the GI50 ([2]; HCC70 cell line, censored GI50 values)?
A: 5.98

Q: And the GI50 ([2]; HCC202 cell line, censored GI50 values)?
A: 5.20

Q: And the GI50 ([2]; HCC1187 cell line, censored GI50 values)?
A: 5.48

Q: What about the GI50 ([2]; HCC1395 cell line, censored GI50 values) of the same compound?
A: 5.13

Q: What about the GI50 ([2]; HCC1419 cell line, censored GI50 values) of the same compound?
A: 5.16

Q: And the GI50 ([2]; HCC1428 cell line, censored GI50 values)?
A: 4.77

Q: And the GI50 ([2]; HCC1954 cell line, censored GI50 values)?
A: 4.79

Q: And the GI50 ([2]; HCC3153 cell line, censored GI50 values)?
A: 4.38

Q: And the GI50 ([2]; LY2 cell line, censored GI50 values)?
A: 4.78

Q: What about the GI50 ([2]; MDAMB134VI cell line, censored GI50 values) of the same compound?
A: 4.78

Q: And the GI50 ([2]; MDAMB231 cell line, censored GI50 values)?
A: 4.61

Q: And the GI50 ([2]; MDAMB361 cell line, censored GI50 values)?
A: 4.75

Q: And the GI50 ([2]; MDAMB436 cell line, censored GI50 values)?
A: 4.72

Q: What about the GI50 ([2]; MDAMB453 cell line, censored GI50 values) of the same compound?
A: 4.81

Q: What about the GI50 ([2]; MDAMB468 cell line, censored GI50 values) of the same compound?
A: 6.27

Q: And the GI50 ([2]; SKBR3 cell line, censored GI50 values)?
A: 5.33

Q: What about the GI50 ([2]; SUM159PT cell line, censored GI50 values) of the same compound?
A: 4.49

Q: And the GI50 ([2]; SUM1315MO2 cell line, censored GI50 values)?
A: 5.04

Q: What about the GI50 ([2]; cell line 600MPE) of the same compound?
A: 5.09

Q: And the GI50 ([2]; cell line AU565)?
A: 5.18

Q: What about the GI50 ([2]; cell line BT20) of the same compound?
A: 4.77
